Where a name gives a salt, the structure may show the parent alone.
What was measured:
[1] = tested on: Aspergillus-induced airway inflammation model; experiment: Inhibitory effect on Aspergillus-induced airway inflammation model; type: in vivo; conditions: mice; for inhibition in vivo at 10000 µg/mL, 100 mg/kg: Mus musculus, Eosinophil, po, 240 h, 10 mg/mL suspension at 10 mL/kg twice a day Day 0 to Day 9, BALF collected at Day 10, read-out: Inhibition rate on count of invasive eosinophil in BALF (%); for Inhibition rate on count of invasive eosinophil in BALF (%): oral, 10 mg/mL suspension at 10 mL/kg twice a day Day 0 to Day 9, BALF collected at Day 10
Procedure: Aspergillus fumigatus extracts (Greer laboratories, Inc.) were adjusted to 400 μg/mL with PBS. The Aspergillus fumigatus solutions thus prepared were administered to mice as nasal drops (50 μL) on Day 0, Day 1, Day 7 and Day 8. The nasal drop was administered one hour after the administration of test compounds in the morning. The test compound was administered twice a day in the morning and evening of Day 0 to Day 9. The test compound was suspended in 0.5% methylcellulose at 10 mg/mL, and orally administered at the dosage of 10 mL/kg. The bronchoalveolar lavage fluid (BALF) was collected at Day 10, and the total white blood cell count in BALF was measured using Celltac (NIHON KOHDEN). The ratio of eosinophil in total white blood cell was calculated using ADVIA 120 (Siemens Healthcare Diagnostics), and the ratio was multiplied by the total white blood cell count to determine the eosinophil count in BALF. The inhibition rate of the test compound was determined, assuming the inhibitory ratio in the treatment with Aspergillus fumigatus extract and 0.5% methylcellulose as 0% and the inhibitory ratio in the treatment without Aspergillus fumigatus extract but with 0.5% methylcellulose as 100%.

[2] = biological target: T1, JAK1 (Homo sapiens, UniProt P23458); experiment: JAK tyrosine kinase inhibitory activity in the presence of 1 mM ATP (ELISA), JAK1; type: biochemical
T1 construct: purchased Carna Biosciences, Inc
Method in brief: (§1)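 Kinase reactions ran on streptavidin-coated plates in 15 mM Tris-HCl pH 7.5, 0.01% Tween-20, 1 mM DTT, 30 °C for 1 h. Enzyme was prediluted to 7.5 nM (JAK1) or 0.75 nM (JAK2, JAK3) before addition. Phosphotyrosine was detected with HRP anti-pTyr antibody and TMB at A450.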

[3] = biological target: T2, JAK3 (Homo sapiens, UniProt P52333); experiment: JAK tyrosine kinase inhibitory activity in the presence of 1 mM ATP (ELISA), JAK3; type: biochemical
T2 construct: purchased Carna Biosciences, Inc
T2 sequence (P52333 1-1124): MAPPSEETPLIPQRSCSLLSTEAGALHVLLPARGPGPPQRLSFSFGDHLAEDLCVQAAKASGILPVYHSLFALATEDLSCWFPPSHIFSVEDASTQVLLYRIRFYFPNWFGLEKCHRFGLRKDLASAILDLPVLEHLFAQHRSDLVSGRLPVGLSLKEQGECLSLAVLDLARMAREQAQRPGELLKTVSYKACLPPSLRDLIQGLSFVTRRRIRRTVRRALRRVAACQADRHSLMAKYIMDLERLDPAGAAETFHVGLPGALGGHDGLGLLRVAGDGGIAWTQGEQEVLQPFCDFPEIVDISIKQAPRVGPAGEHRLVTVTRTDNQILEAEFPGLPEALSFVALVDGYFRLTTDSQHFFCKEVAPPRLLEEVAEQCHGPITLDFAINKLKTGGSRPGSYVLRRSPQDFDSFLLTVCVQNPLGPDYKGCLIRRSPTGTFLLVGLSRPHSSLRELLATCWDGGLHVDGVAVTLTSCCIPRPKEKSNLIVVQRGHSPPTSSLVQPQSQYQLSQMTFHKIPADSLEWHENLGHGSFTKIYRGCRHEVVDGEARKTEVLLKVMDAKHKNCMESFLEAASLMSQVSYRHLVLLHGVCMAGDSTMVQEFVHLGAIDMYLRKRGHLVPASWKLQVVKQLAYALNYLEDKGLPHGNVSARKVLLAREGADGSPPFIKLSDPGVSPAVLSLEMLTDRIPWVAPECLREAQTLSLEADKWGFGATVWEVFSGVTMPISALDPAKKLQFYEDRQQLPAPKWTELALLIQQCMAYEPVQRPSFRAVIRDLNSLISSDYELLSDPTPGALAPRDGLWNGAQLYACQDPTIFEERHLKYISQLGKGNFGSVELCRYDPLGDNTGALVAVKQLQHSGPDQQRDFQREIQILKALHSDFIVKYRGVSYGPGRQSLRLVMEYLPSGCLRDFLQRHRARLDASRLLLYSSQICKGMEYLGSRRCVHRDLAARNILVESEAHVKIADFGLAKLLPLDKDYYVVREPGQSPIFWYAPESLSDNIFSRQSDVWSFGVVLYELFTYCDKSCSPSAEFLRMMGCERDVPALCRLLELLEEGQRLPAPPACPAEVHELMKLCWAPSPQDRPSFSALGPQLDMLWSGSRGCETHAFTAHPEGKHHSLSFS
Method in brief: as §1

[4] = biological target: T3, JAK2 (Homo sapiens, UniProt O60674); experiment: JAK tyrosine kinase inhibitory activity in the presence of 1 mM ATP (ELISA), JAK2; type: biochemical
T3 construct: purchased Carna Biosciences, Inc
Method in brief: as §1

T1 sequence (P23458 whole entry): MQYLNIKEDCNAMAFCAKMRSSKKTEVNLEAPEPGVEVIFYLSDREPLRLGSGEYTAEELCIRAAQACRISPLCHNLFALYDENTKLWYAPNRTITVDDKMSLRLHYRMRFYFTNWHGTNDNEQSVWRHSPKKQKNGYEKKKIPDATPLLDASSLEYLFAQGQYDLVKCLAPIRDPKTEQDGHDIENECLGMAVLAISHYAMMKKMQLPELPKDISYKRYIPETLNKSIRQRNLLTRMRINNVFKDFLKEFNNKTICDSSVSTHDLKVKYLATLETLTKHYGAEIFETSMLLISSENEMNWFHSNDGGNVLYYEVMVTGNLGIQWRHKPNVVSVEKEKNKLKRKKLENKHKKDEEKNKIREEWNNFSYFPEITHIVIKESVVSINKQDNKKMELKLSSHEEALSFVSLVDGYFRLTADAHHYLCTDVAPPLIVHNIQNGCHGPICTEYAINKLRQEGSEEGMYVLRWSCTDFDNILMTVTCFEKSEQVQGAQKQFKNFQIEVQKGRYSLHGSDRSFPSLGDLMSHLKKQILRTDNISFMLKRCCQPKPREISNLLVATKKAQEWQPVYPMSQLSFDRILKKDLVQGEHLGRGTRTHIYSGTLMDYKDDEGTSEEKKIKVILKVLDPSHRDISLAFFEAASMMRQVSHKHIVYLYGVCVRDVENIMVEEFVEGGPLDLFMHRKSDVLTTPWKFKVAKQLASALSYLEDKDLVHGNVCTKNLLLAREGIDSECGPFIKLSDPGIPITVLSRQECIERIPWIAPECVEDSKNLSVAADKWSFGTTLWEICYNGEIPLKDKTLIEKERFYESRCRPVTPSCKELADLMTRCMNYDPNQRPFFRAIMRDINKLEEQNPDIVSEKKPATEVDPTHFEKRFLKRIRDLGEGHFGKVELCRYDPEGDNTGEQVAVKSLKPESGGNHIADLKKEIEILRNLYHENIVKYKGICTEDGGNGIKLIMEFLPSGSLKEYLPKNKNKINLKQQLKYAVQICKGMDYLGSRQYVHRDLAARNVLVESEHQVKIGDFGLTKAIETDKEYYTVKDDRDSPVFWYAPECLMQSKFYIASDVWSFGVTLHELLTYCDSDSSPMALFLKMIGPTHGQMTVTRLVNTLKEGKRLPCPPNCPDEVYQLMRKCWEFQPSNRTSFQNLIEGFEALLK
T3 sequence (O60674 whole entry): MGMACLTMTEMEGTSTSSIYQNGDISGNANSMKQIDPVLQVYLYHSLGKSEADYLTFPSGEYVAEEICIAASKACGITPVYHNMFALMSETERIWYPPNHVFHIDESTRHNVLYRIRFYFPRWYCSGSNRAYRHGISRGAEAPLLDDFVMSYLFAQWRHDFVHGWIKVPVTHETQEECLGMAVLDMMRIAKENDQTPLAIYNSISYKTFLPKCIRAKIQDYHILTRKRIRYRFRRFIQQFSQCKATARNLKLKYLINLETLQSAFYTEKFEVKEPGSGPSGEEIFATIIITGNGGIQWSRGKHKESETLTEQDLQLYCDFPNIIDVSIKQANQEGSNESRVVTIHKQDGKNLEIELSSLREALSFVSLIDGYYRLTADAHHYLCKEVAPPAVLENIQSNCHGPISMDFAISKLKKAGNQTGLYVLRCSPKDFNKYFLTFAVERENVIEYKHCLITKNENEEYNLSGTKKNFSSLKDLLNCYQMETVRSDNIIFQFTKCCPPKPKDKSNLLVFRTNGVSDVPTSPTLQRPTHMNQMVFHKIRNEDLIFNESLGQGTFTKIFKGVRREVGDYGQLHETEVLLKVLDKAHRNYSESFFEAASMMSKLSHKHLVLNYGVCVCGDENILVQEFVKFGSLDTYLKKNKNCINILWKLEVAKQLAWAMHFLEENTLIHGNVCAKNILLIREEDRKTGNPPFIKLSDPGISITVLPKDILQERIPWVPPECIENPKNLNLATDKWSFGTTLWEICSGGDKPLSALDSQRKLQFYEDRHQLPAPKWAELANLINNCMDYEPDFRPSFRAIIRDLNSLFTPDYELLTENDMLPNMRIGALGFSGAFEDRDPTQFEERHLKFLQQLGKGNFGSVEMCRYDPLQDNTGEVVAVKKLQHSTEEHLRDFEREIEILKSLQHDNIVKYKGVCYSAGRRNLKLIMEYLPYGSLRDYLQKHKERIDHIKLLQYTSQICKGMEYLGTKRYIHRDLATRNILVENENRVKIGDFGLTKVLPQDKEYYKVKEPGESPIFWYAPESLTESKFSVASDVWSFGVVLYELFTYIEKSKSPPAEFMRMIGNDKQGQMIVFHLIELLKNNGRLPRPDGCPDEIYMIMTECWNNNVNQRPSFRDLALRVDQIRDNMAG

SMILES | inhibition in vivo at 10000 µg/mL, 100 mg/kg [1] | IC50 [2] | IC50 [3] | IC50 [4] | Inhibition rate on count of invasive eosinophil in BALF (%) [1]
CCOC(=O)NC1CCN(C(=O)c2cc(N[C@@H](C)C3CC3)nc(-c3cnn4ccsc34)n2)CC1 [Example 28, Ethyl (1-{[6-{[(1S)-1-cyclopropylethyl]amino}-2-(pyrazolo[5,1-b][1,3]thiazol-7-yl)pyrimidin-4-yl]carbonyl}piperidin-4-yl)carbamate] | 52% | 120 nM | > 10000 nM | 2100 nM | –
CC[C@@H](C)Nc1cc(C(=O)N2CCC(NC(=O)OC)CC2)nc(-c2cnn3ccsc23)n1.Cl [Example 127, Methyl [1-({6-[(2R)-butan-2-ylamino]-2-(pyrazolo[5,1-b][1,3]thiazol-7-yl)pyrimidin-4-yl}carbonyl)piperidin-4-yl]carbamate hydrochloride] | – | 590 nM | – | – | 38%
C[C@@H](Nc1cc(C(=O)N2CCC(O)CC2)nc(-c2cnn3ccsc23)n1)C(C)(C)C [Example 62, [6-{[(2R)-3,3-Dimethylbutan-2-yl]amino}-2-(pyrazolo[5,1-b][1,3]thiazol-7-yl)pyrimidin 4 yl](4-hydroxypiperidin-1-yl)methanone hydrochloride] | 36% | 10 nM | 1100 nM | 1000 nM | –
CC[C@H](C)Nc1cc(C(=O)N2CCC(NC(=O)OC)CC2)nc(-c2cnn3ccsc23)n1 [Example 125, Methyl [1-({6-[(2S)-butan-2-ylamino]-2-(pyrazolo[5,1-b][1,3]thiazol-7-yl)pyrimidin-4-yl}carbonyl)piperidin-4-yl]carbamate hydrochloride] | 35% | 210 nM | > 10000 nM | 4700 nM | –
COC(=O)NC1CCN(C(=O)c2cc(N[C@@H](C)C3CC3)nc(-c3cnn4ccsc34)n2)CC1 [Example 26, Methyl (1-{[6-{[(1S)-1-cycloproropylethyl]amino}-2-(pyrazolo[5,1-b][1,3]thiazol-7-yl)pyrimidin-4-yl]carbonyl}piperidin-4-yl)carbamate] | 58% | 75 nM | 2100 nM | 2100 nM | –
C[C@@H](Nc1cc(C(=O)N2CCC(NC(=O)OCC(F)F)CC2)nc(-c2cnn3ccsc23)n1)C1CC1 [Example 96, 2,2-Difluoroethyl (1-{[6-{[(1R)-1-cyclopropylethyl]amino}-2-(pyrazolo[5,1-b][1,3]thiazol-7-yl)pyrimidin-4-yl]carbonyl}piperidin-4-yl)carbamate hydrochloride] | 51% | 250 nM | 2200 nM | 1000 nM | –
COC(=O)NC1CCN(C(=O)c2cc(N[C@@H](C)C3CC3)nc(-c3cnn4ccsc34)n2)CC1.Cl [Example 27, Methyl (1-{[6-{[(1S)-1-cyclopropylethyl]amino}-2-(pyrazolo[5,1-b][1,3]thiazol-7-yl)pyrimidin-4-yl]carbonyl}piperidin-4-yl)carbamate hydrochloride] | – | 140 nM | 4300 nM | 2500 nM | 62%
C[C@H](Nc1cc(C(=O)N2CCC(NC(=O)OC(C)(C)CF)CC2)nc(-c2cnn3ccsc23)n1)C1CC1 [Example 21, 1-Fluoro-2-methylpropan-2-yl (1-{[6-{[(1S)-1-cyclopropylethyl]amino}-2-(pyrazolo[5,1-b][1,3]thiazol-7-yl)pyrimidin-4-yl]carbonyl}piperidin-4-yl)carbamate hydrochloride] | 47% | 230 nM | > 10000 nM | 2200 nM | –
C[C@@H](C1CC1)N(C)c1cc(C(=O)N2CCC(NC(=O)C3CC3)CC2)nc(-c2cnn3ccsc23)n1 [Example 33, N-(1-{[6-{[(1S)-1-Cyclopropylethyl](methyl)amino}-2-(pyrazolo[5,1-b][1,3]thiazol-7-yl)pyrimidin-4-yl]carbonyl}piperidin-4-yl)cyclopropanecarboxamide hydrochloride] | 37% | 130 nM | 1700 nM | 1700 nM | –
C[C@H](Nc1cc(C(=O)N2CCC(O)CC2)nc(-c2cnn3ccsc23)n1)C1CC1 [Example 20, [6-{[(1S)-1-Cyclopropylethyl]amino}-2-(pyrazolo[5,1-b][1,3]thiazol-7-yl)pyrimidin-4-yl](4-hydroxypiperidin-1-yl)methanone hydrochloride] | 61% | 1400 nM | 4200 nM | 4700 nM | –
CC(C)(C)OC(=O)N1CCC(Nc2cc(C(=O)N3CCC(NC(=O)C4CC4)CC3)nc(-c3cnn4ccsc34)n2)CC1 [Example 171, Tert-butyl 4-[6-4-[(cyclopropanecarbonyl)amino]piperidine-1-carbonyl-2-(pyrazolo[5,1-b][1,3]thiazol-7-yl)pyrimidin-4-yl]aminopiperidine-1-carboxylate] | – | 850 nM | > 10000 nM | > 10000 nM | –
COC(=O)NC1CCN(C(=O)c2cc(N[C@@H]3CCN(C)C3)nc(-c3cnn4ccsc34)n2)CC1 [Example 151, Methyl (1-{[6-{[(3R)-1-methylpyrrolidin-3-yl]amino}-2-(pyrazolo[5,1-b][1,3]thiazol-7-yl)pyrimidin-4-yl]carbonyl}piperidin-4-yl)carbamate] | – | 2600 nM | > 10000 nM | > 10000 nM | –
CCCOC(=O)NC1CCN(C(=O)c2cc(NC(C)(C)C)nc(-c3cnn4ccsc34)n2)CC1 [Example 82, Propyl (1-{[6-(tert-butylamino)-2-(pyrazolo[5,1-b][1,3]thiazol-7-yl)pyrimidin-4-yl]carbonyl}piperidin-4-yl)carbamate] | – | 58 nM | 5800 nM | 9700 nM | –
CCC(C)(C)Nc1cc(C(=O)N2CCC(NC(=O)OC)CC2)nc(-c2cnn3ccsc23)n1 [Example 80, Methyl [1-({6-[(2-methylbutan-2-yl)amino]-2-(pyrazolo[5,1-b][1,3]thiazol-7-yl)pyrimidin-4-yl}carbonyl)piperidin-4-yl]carbamate] | – | 110 nM | 2300 nM | 820 nM | –
COc1ccccc1C(=O)NC1CCN(C(=O)c2cc(N[C@@H](C)C3CC3)nc(-c3cnn4ccsc34)n2)CC1 [Example 186, N-1-[6-[(1S)-1-cyclopropylethyl]amino-2-(pyrazolo[5,1-b][1,3]thiazol-7-yl)pyrimidine-4-carbonyl]piperidin-4-yl-2-methoxybenzamide] | – | 81 nM | 580 nM | > 10000 nM | –
O=C(NC1CCN(C(=O)c2cc(NCC3(COC(F)F)CC3)nc(-c3cnn4ccsc34)n2)CC1)C1CC1 [Example 8, N-[1-({6-[({1-[(Difluoromethoxy)methyl]cyclopropyl}methyl)amino]-2-(pyrazolo[5,1-b][1,3]thiazol-7-yl)pyrimidin-4-yl}carbonyl)piperidin-4-yl]cyclopropanecarboxamide] | – | 52 nM | 3800 nM | 2400 nM | –
